Measured values from patent US10947252B2, “Inhibitors of KEAP1-Nrf2 protein-protein interaction” (Janssen Pharmaceutica NV, priority 2018, dated 2021).

Test system: Glo-Response ARE-luc2P HEK293 cell line
Test: ARE luciferase reporter cell-based assay;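 also: luciferase signal tracks Nrf2 activation of the ARE once compounds disrupt KEAP1-Nrf2 binding, read with One-Glo reagent, DMSO serving as low control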
Details: average of results obtained

SMILES	EC50 (Homo sapiens, HEK293, 24 h) [nM]	EC50 (24 hours) [nM]
Cc1cnc2c(c1)S(=O)(=O)N(Cc1cc(C(c3ccn4c(C(F)(F)F)nnc4c3C)C(C)(C)C(=O)O)cnc1C)CC1(CC1)O2 (racemic) [Example 572]	392	
Cc1ccc([C@H](CC(=O)O)c2ccn3c(C(F)(F)F)nnc3c2C)cc1CN1CC2(CC2)Oc2nc(N(C)CCO)ccc2S1(=O)=O (single isomer, unassigned) [Example 110, (*S)-3-(-3-((7′-((3-Hydroxyethyl)(methyl)amino)-1′,1′-dioxidospiro[cyclopropane-1,4′-pyrido[2,3-b][1,4,5]oxathiazepin]-2′(3′H)-yl)methyl)-4-methylphenyl)-3-(8-methyl-3-(trifluoromethyl)-[1,2,4[triazolo[4,3-a]pyridine-7-yl)propanoic Acid]	485	
COCCCOc1ccc2c(n1)OC1(CC1)CN(Cc1cc([C@H](CC(=O)O)c3ccn4c(C(F)(F)F)nnc4c3C)ccc1C)S2(=O)=O (single isomer, unassigned) [Example 109, (*S)-3-(-3-((7′-((3-Methoxypropoxy)-1′,1′-dioxidospiro[cyclopropane-1,4′-pyrido[2,3-b][1,4,5]oxathiazepin]-2′(3′H)-yl)methyl)-4-methylphenyl)-3-(8-methyl-3-(trifluoromethyl)-[1,2,4[triazolo[4,3-a]pyridine-7-yl)propanoic Acid]	128	
Cc1cnc2c(c1)S(=O)(=O)N(Cc1cc([C@H](c3ccn4c(C(F)(F)F)nnc4c3C)[C@@H](C)C(=O)O)ccc1C)CC1(CC1)O2 (relative stereo) [Example 546, (2*R,3*R)-2-Methyl-3-(4-methyl-3-((8′-methyl-1′,1′-dioxidospiro[cyclopropane-1,4′-pyrido[2,3-b][1,4,5]oxathiazepin]-2′(3′H)-yl)methyl)phenyl)-3-(8-methyl-3-(trifluoromethyl)-[1,2,4]triazolo[4,3-a]pyridin-7-yl)propanoic Acid]	> 20000	
CCn1nnc2c(C)c([C@H](CC(=O)O)c3ccc(C)c(CN4C[C@@H]5CCCCN5c5ncccc5S4(=O)=O)c3)ccc21 (single isomer, unassigned) [Example 143, (*R)-3-(3-(((*S)-5,5-Dioxido-7,7a,8,9,10,11-hexahydro-6H-dipyrido[2,1-d:2′,3′-f][1,2,5]thiadiazepin-6-yl)methyl)-4-methylphenyl)-3-(1-ethyl-4-methyl-1H-benzo[d][1,2,3]triazol-5-yl)propanoic Acid]	45	
Cc1ccc(C(c2ccn3c(C(F)(F)F)nnc3c2C)C(C)(C)C(=O)O)cc1CN1CC2(CCOCC2)Oc2nc(NCCCO)ccc2S1(=O)=O (centres unmarked) [Example 114]	145	
Cc1cnc2c(c1)S(=O)(=O)N(Cc1cc([C@@H](CC(=O)O)c3ccn4c(C(F)F)nnc4c3C)ccc1C)C[C@H]1CCCCN21 (stereo in doubt) [Example 504, (*R)-3-(3-(Difluoromethyl)-8-methyl-[1,2,4]triazolo[4,3-a]pyridin-7-yl)-3-(4-methyl-3-(((*R)-3-methyl-5,5-dioxido-7,7a,8,9,10,11-hexahydro-6H-dipyrido[2,1-d:2′,3′-f][1,2,5]thiadiazepin-6-yl)methyl)phenyl)propanoic Acid]	7.22	
CCn1nnc2c(C)c([C@H](CC(=O)O)c3ccc(C)c(CN4C[C@H]5CCCCN5c5ncccc5S4(=O)=O)c3)ccc21 (single isomer, unassigned) [Example 146, (*R)-3-(3-(((*R)-5,5-Dioxido-7,7a,8,9,10,11-hexahydro-6H-dipyrido[2,1-d:2′,3′-f][1,2,5]thiadiazepin-6-yl)methyl)-4-methylphenyl)-3-(1-ethyl-4-methyl-1H-benzo[d][1,2,3]triazol-5-yl)propanoic Acid]	4.2	
Cc1cnc2c(c1)S(=O)(=O)N(Cc1cc(C(CC(=O)O)c3ccn4c(C(F)F)nnc4c3C)ccc1C)C[C@H]1CCCCN21 (stereo in doubt) [Example 502, 3-(3-(Difluoromethyl)-8-methyl-[1,2,4]triazolo[4,3-a]pyridin-7-yl)-3-(4-methyl-3-(((*R)-3-methyl-5,5-dioxido-7,7a,8,9,10,11-hexahydro-6H-dipyrido[2,1-d:2′,3′-f][1,2,5]thiadiazepin-6-yl)methyl)phenyl)propanoic Acid]	3.92	
Cc1cnc2c(c1)S(=O)(=O)N(Cc1cc([C@@H](c3ccn4c(C(F)(F)F)nnc4c3C)C(C)(C)C(=O)O)ccc1C)CC1(CCOCC1)O2 (single isomer, unassigned) [Example 18, (*S)-2,2-Dimethyl-3-(4-methyl-3-((8′-methyl-1′,1′-dioxido-2,3,5,6-tetrahydrospiro[pyran-4,4′-pyrido[2,3-b][1,4,5]oxathiazepin]-2′(3′H)-yl)methyl)phenyl)-3-(8-methyl-3-(trifluoromethyl)-[1,2,4]triazolo[4,3-a]pyridin-7-yl)propanoic Acid]	1.5	
Cc1ccc(C(c2ccn3c(C(F)(F)F)nnc3c2C)C(C)C(=O)O)cc1CN1C[C@@H]2CCCCN2c2ncccc2S1(=O)=O (stereo in doubt) [Example 129, 3-(3-(((*S)-5,5-Dioxido-7,7a,8,9,10,11-hexahydro-6H-dipyrido[2,1-d:2′,3′-f][1,2,5]thiadiazepin-6-yl)methyl)-4-methylphenyl)-2-methyl-3-(8-methyl-3-(trifluoromethyl)-[1,2,4]triazolo[4,3-a]pyridine-7-yl)propanoic Acid]		6.8
Cc1ccc([C@@H](CC(=O)O)c2ccn3c(C(F)(F)F)nnc3c2C)cc1CN1C[C@H]2COCCN2c2ncccc2S1(=O)=O (single isomer, unassigned) [Example 263, (*R)-3-(3-(((*S)-5,5-Dioxido-7a,8,10,11-tetrahydro-[1,4]oxazino[3,4-d]pyrido[2,3-f][1,2,5]thiadiazepin-6(7H)-yl)methyl)-4-methylphenyl)-3-(8-methyl-3-(trifluoromethyl)-[1,2,4]triazolo[4,3-a]pyridin-7-yl)propanoic Acid]	1160	
Cc1cnc2c(c1)S(=O)(=O)N(Cc1cc(C(c3ccn4c(C(F)(F)F)nnc4c3C)C(C)(C)C(=O)O)ccc1C)CC1(CCOCC1)O2 (centres unmarked) [Example 17, 2,2-Dimethyl-3-(4-methyl-3-((8′-methyl-1′,1′-dioxido-2,3,5,6-tetrahydrospiro[pyran-4,4′-pyrido[2,3-b][1,4,5]oxathiazepin]-2′(3′H)-yl)methyl)phenyl)-3-(8-methyl-3-(trifluoromethyl)-[1,2,4]triazolo[4,3-a]pyridin-7-yl)propanoic Acid]	3.6	
Cc1c([C@@H](CC(=O)O)c2ccc(Cl)c(CN3CC4(COC4)Oc4ccccc4S3(=O)=O)c2)ccn2c(C(F)(F)F)nnc12 (single isomer, unassigned) [Example 97, (*S)-3-(4-Chloro-3-((1′,1′-dioxoidospiro[benzo[b]]oxethiazepine-4,3′-oxetan]-2(3H)-yl)methyl)phenyl)-3-(8-methyl-3-(trifluoromethyl)-[1,2,4]triazolo[4,3-a]pyridine-7-yl)propanoic Acid]	5290	
CCn1nnc2c(C)c([C@H](CC(=O)O)c3ccc(C)c(CN4C[C@H]5CCCN5c5ccccc5S4(=O)=O)c3)ccc21 (single isomer, unassigned) [Example 154, (*R)-3-(3-(((R)-5,5-Dioxido-7a,8,9,10-tetrahydrobenzo[f]pyrrolo[2,1-d][1,2,5]thiadiazepin-6(7H)-yl)methyl)-4-methylphenyl)-3-(1-ethyl-4-methyl-1H-benzo[d][1,2,3]triazol-5-yl)propanoic Acid]	59	
Cc1cnc2c(c1)S(=O)(=O)N(Cc1cc(C(c3ccn4c(C(F)(F)F)nnc4c3C)C(C)(C)C(=O)O)ccc1C)CC1(CCOCC1)O2 (centres unmarked) [Example 406, 2,2-Dimethyl-3-(4-methyl-3-((8′-methyl-1′,1′-dioxido-2,3,5,6-tetrahydrospiro[pyran-4,4′-pyrido[2,3-b][1,4,5]oxathiazepin]-2′(3′H)-yl)methyl)phenyl)-3-(8-methyl-3-(trifluoromethyl)-[1,2,4]triazolo[4,3-a]pyridin-7-yl)propanoic Acid]		3.6
Cc1ccc([C@@H](c2ccn3c(C(F)F)nnc3c2C)C(C)(C)C(=O)O)cc1CN1CC2(CC2)Oc2ncccc2S1(=O)=O (single isomer, unassigned) [Example 567, (*S)-3-(3-(Difluoromethyl)-8-methyl-[1,2,4]triazolo[4,3-a]pyridin-7-yl)-3-(3-((1′,1′-dioxidospiro[cyclopropane-1,4′-pyrido[2,3-b][1,4,5]oxathiazepin]-2′(3′H)-yl)methyl)-4-methylphenyl)-2,2-dimethylpropanoic Acid]	2.6	
Cc1ccc([C@H](CC(=O)O)c2ccn3c(C(F)(F)F)nnc3c2C)cc1CN1C[C@H]2CCCCN2c2ncc(Cl)cc2S1(=O)=O (relative stereo) [Example 193, (*S)-3-(3-(((*R)-3-Chloro-5,5-dioxido-7,7a,8,9,10,11-hexahydro-6H-dipyrido[2,1-d:2′,3′-f][1,2,5]thiadiazepin-6-yl)methyl)-4-methylphenyl)-3-(8-methyl-3-(trifluoromethyl)-[1,2,4]triazolo[4,3-a]pyridin-7-yl)propanoic Acid]	1.7	
Cc1ccc([C@@H](c2ccn3c(C(F)(F)F)nnc3c2C)C(C)C(=O)O)nc1CN1C[C@@H]2CCCCN2c2ncc(F)cc2S1(=O)=O (relative stereo) [Example 507, (3*R)-3-(6-(((*S)-3-Fluoro-5,5-dioxido-7,7a,8,9,10,11-hexahydro-6H-dipyrido[2,1-d:2′,3′-f][1,2,5]thiadiazepin-6-yl)methyl)-5-methylpyridin-2-yl)-2-methyl-3-(8-methyl-3-(trifluoromethyl)-[1,2,4]triazolo[4,3-a]pyridin-7-yl)propanoic Acid]	0.73	
Cc1ccc([C@H](CC(=O)O)c2ccn3c(C(F)(F)F)nnc3c2C)cc1CN1C[C@@H]2CCCCN2c2nc(C#N)ccc2S1(=O)=O (relative stereo) [Example 202, (*S)-3-(3-(((*S)-2-Cyano-5,5-dioxido-7,7a,8,9,10,11-hexahydro-6H-dipyrido[2,1-d:2′,3′-f][1,2,5]thiadiazepin-6-yl)methyl)-4-methylphenyl)-3-(8-methyl-3-(trifluoromethyl)-[1,2,4]triazolo[4,3-a]pyridin-7-yl)propanoic Acid]	13	
